Test results: patent publication US12331095B2, “Inducible T cell receptors and uses thereof” (MEDIGENE IMMUNOTHERAPIES GMBH, priority 2018, dated 2025)

System: CD8+ PBL
Assay: Flow cytometry (CD3, BV6-5) for induction of iTCR-NY-ESO on the surface of CD8+ PBL
Assay type: cell-based
Conditions: any of the concentrations tried (data not shown)
Protocol: FIG. 9: CD8^+ PBL transduced with iTCR-NY-ESO (MHC-I restricted TCR) or CD8^+ PBL expressing wt-NY-ESO were induced overnight with 1, 5, 10 or 20 μM Endoxifen or were left uninduced (no Endoxifen). 24 h after induction T2 cells loaded with relevant peptide SLLMWITQC (SEQ ID NO: 12) or irrelevant peptide VLDGLDVLL (SEQ ID NO: 11) were added to the cultures. IFN-γ secretion was detected by standard IFN-γ ELISA performed with the culture supernatants 24 h after stimulation with T2 targets. Flow cytometry was performed 48 h after induction and cells were assessed for BFP (transductants), CD3 and BV6-5. Exemplary plots shown are iTCR-NY-ESO transduced CD8^+ PBL without induction or with 20 μM Endoxifen. Plots were generated using the analysis tool FlowJo V10. Graph was plotted using graphPad Prism 7.
PBL from a healthy donor was enriched for CD8^+ cells using a commercial cell isolation kit (CD8+untouched) and transduced with the lentiviral vector carrying the iTCR-NY-ESO cassette or with the lentiviral vector carrying wt-NY-ESO as positive control. […] CD8^+ cells carrying either iTCR-NY-ESO were induced overnight with 20 μM Endoxifen or left untreated. Cells were then stained for CD3 (CD3-PECy7, SK7, 557851, BD) and the specific V-beta family BV6-5 (antibody: TRBV6-5-PE, IMMU 222, IM2292, Beckman Coulter).

## CCC(=C(c1ccc(O)cc1)c1ccc(OCCN(C)C)cc1)c1ccccc1 [4-Hydroxytamoxifen, 4-(1-[4-(Dimethylaminoethoxy)phenyl]-2-phenyl-1-butenyl)phenol]
  induction of iTCR-NY-ESO in PBL: did not induce iTCR-NY-ESO in PBL in any of the concentrations tried
